System: TH positive cells in the substantia nigra
Assay: Protection of the substantia nigra after transient global ischaemia in gerbils (TH positive cell count)
Format: in vivo, Mongolian gerbils
Conditions: 2 mg/kg i.p. 2 minutes after end of occlusion
Procedure: Protection of the Substantia Nigra after Transient Global Ischaemia in Gerbils
In this experiment, the neuroprotective effect of a test compound is assessed in an animal model of transient global ischaemia.
Method: In halothane anaesthetised gerbils, right and left carotid arteries are located and occluded for 10 minutes. Animals are kept at normal body temperature before and after the operation using heating lamps. During surgery, the gerbils are placed on heating pads, the body temperature is controlled and maintained at 37±0.5° C. The test compound is dosed at specified time points after the ischaemic insult, either i.v., i.p., s.c. or p.o.
Fourteen days later, the animals are sacrificed, brains removed and cooled to −70° C. Thereafter, the brains are sectioned in 20 μm thick sections through the substantia nigra region. Sections are stained for tyroxine hydroxylase (TH+) expression using immunohistochemistry. The number of TH+ cells in the sections is counted and the total number of TH+ cells in the substantia nigra is calculated by means of stereology. […]
After 14 days, the animals were sacrificed and the brains sectioned. […] The total number of TH positive cells after ischemia or in control animals were determined by means of stereological cell counting.

CON=C[C@@H]1[C@@H](c2ccc(Cl)c(Cl)c2)CC2CC[C@H]1N2C [test compound, (1R,2R,3S)-3-(3,4-dichlorophenyl)-tropane-2-O-methyl-aldoxime]
Mean number of cells (total number of TH positive cells in the substantia nigra) (10 min bilateral carotid artery occlusion, counted after 14 days by stereology, control 9531, ischemia 7510): 10615 cells | number of surviving TH positive cells in the substantia nigra after ischemia, compared with untreated ischemia (10 min carotid artery occlusion, 14 days): apparently increased

From US7381733B2, “Tropane derivatives having dopamine reuptake inhibitor activity for the treatment of ischemic diseases” (Neurosearch A/S, priority 2001, dated 2008)
